Test results from ChEMBL document CHEMBL5360550 (Eur J Med Chem, 2023).
Active and inactive are the calls of the source. No cut-off for these calls is given here.

Columns and labels:
[1] = tested on: Trypanosoma brucei rhodesiense; experiment: Antiprotozoal activity against long slender blood stream form Trypanosoma brucei rhodesiense STIB900 assessed as parasite growth inhibition incubated for 70 hrs by resazurin based microplate fluorometer analysis; type: functional, organism-based; conditions: STIB900, 70 h
Plasmodium falciparum = experiment: Antiprotozoal activity against chloroquine resistant Plasmodium falciparum K1 infected in human erythrocytes assessed as parasite growth inhibition incubated for 48 hrs by [3H]-hypoxanthine incorporation assay based Betaplate liquid scintillation counter method; type: functional, organism-based; conditions: K1, Erythrocyte
[2] = Cytotoxicity against rat L6 cells assessed as reduction in cell viability incubated for 70 hrs by Alamar blue based microplate fluorescence assay; type: toxicity
[3] = Selectivity index, ratio of IC50 for cytotoxicity against rat L6 cells to IC50 for antiprotozoal activity against long slender blood stream form Trypanosoma brucei rhodesiense STIB900; type: toxicity, cell-based; conditions: read-out: Ratio IC50
[4] = Selectivity index, ratio of IC50 for cytotoxicity against rat L6 cells to IC50 for antiprotozoal activity against chloroquine resistant Plasmodium falciparum K1 infected in human erythrocytes; type: toxicity, cell-based; conditions: read-out: Ratio IC50
[5] = tested on: Trypanosoma brucei rhodesiense; experiment: In vivo antiprotozoal activity against acute hemolymphatic stage Trypanosoma brucei rhodesiense STIB900 infected in NMRI mouse assessed as reduction of parasitaemia at 5 mg/kg, ip for 4 days consecutive and measured upto 60 days relative to control; type: functional
AT rich DNA [6] = tested on: AT rich DNA
Description: Binding affinity to double stranded [poly(dA-dT)2] DNA (unknown origin) minor groove assessed as increase in melting temperature by spectrophotometer analysis

AT rich DNA [7] = experiment: Binding affinity to double stranded [poly(dA-dT)2] DNA (unknown origin) minor groove assessed as increase in positive induced CD signal in 360 to 400 nanometer absorption range incubated for 10 mins by circular dichroism spectroscopy; type: nucleic-acid assay
[8] = tested on: Trypanosoma brucei rhodesiense; experiment: In vivo antiprotozoal activity against acute hemolymphatic stage Trypanosoma brucei rhodesiense STIB900 infected in NMRI mouse assessed as reduction of parasitaemia at 10 mg/kg, ip for 4 days consecutive and measured upto 60 days relative to control; type: functional; design: scale not given: the % may be the effect or the level left; conditions: time 4 day

Which IC50 [1] does the source give for N=C(N)c1ccc2cc(-c3ccc(-c4ccc(C(=N)N)nc4)o3)[nH]c2c1 here?
Its IC50 is 7 nM.

And the IC50 (Plasmodium falciparum)?
Its IC50 is 3.6 nM.

And the IC50 at 70 h [2]?
Its IC50 at 70 h is 14200 nM.

What about the selectivity ratio [3] of the same compound?
The selectivity ratio was 2030.

What about the selectivity ratio [4] of the same compound?
The selectivity ratio was 3940.

What about the Activity ([5]; time 4.0 day) of the same compound?
The Activity was “inactive”.

And the ΔTm (AT rich DNA [6])?
The ΔTm was 28 °C.

For N=C(N)c1ccc(-c2ccc(-c3cc4cc(C(=N)N)ccc4[nH]3)s2)cc1, which IC50 [1] is on record?
Its IC50 is 6 nM.

What about the IC50 (Plasmodium falciparum) of the same compound?
Its IC50 is 2.8 nM.

What about the IC50 at 70 h [2] of the same compound?
Its IC50 at 70 h is 17000 nM.

What about the selectivity ratio [3] of the same compound?
Its selectivity ratio is 2830.

What about the selectivity ratio [4] of the same compound?
Its selectivity ratio is 6070.

What about the Activity ([5]; time 4 day) of the same compound?
Its Activity is 50%.

And the ΔTm (AT rich DNA [6])?
The ΔTm was 29 °C.

With N=C(N)c1ccc(-c2ccc(-c3nc4cc(C(=N)N)ccc4[nH]3)o2)cc1 as the compound, how does the IC50 [1] read?
Its IC50 is 122 nM.

What about the IC50 (Plasmodium falciparum) of the same compound?
Its IC50 is 95.8 nM.

What about the IC50 at 70 h [2] of the same compound?
Its IC50 at 70 h is 10100 nM.

What about the selectivity ratio [3] of the same compound?
The selectivity ratio was 82.

And the selectivity ratio [4]?
Its selectivity ratio is 105.

And the Activity ([5]; time 4 day)?
The Activity was 25%.

What about the ΔTm (AT rich DNA [6]) of the same compound?
Its ΔTm is 25 °C.

For N=C(N)c1ccc(-c2ccc(-c3cc4ccc(C(=N)N)cc4[nH]3)s2)cc1, which Activity (AT rich DNA [7]) is on record?
The Activity was “Active”.

And the IC50 [1]?
The IC50 was 12 nM.

What about the IC50 (Plasmodium falciparum) of the same compound?
Its IC50 is 7.2 nM.

And the IC50 at 70 h [2]?
Its IC50 at 70 h is 12400 nM.

And the selectivity ratio [3]?
Its selectivity ratio is 1030.

And the selectivity ratio [4]?
The selectivity ratio was 1720.

What about the Activity ([5]; time 4.0 day) of the same compound?
Its Activity is “inactive”.

What about the ΔTm (AT rich DNA [6]) of the same compound?
The ΔTm was greater than 30 °C.

What does the source list for N=C(N)c1ccc(-c2ccc(-c3nc4ccc(C(=N)N)cc4[nH]3)s2)cc1?
IC50 [1]: 27 nM; IC50 (Plasmodium falciparum): 11.8 nM; IC50 at 70 h [2]: 22400 nM; selectivity ratio [3]: 829; selectivity ratio [4]: 1900; Activity [8]: 75%; ΔTm (AT rich DNA [6]): > 30 °C

For N=C(N)c1ccc(-c2ccc(-c3cc4ccc(C(=N)N)cc4[nH]3)o2)cc1, which Activity (AT rich DNA [7]) is on record?
The Activity was “Active”.

And the IC50 [1]?
Its IC50 is 12 nM.

And the IC50 (Plasmodium falciparum)?
The IC50 was 4.6 nM.

What about the IC50 at 70 h [2] of the same compound?
The IC50 at 70 h was 12900 nM.

What about the selectivity ratio [3] of the same compound?
Its selectivity ratio is 1080.

What about the selectivity ratio [4] of the same compound?
Its selectivity ratio is 2800.

What about the Activity ([5]; time 4.0 day) of the same compound?
The Activity was “inactive”.

What about the ΔTm (AT rich DNA [6]) of the same compound?
The ΔTm was greater than 30 °C.

For N=C(N)c1ccc(-c2ccc(-c3ccc(C(=N)N)cc3)o2)cc1 [FURAMIDINE], which Activity ([5]; time 4 day) is on record?
The Activity was 25%.

What about the ΔTm (AT rich DNA [6]) of the same compound?
The ΔTm was 25 °C.

What does the source list for N=C(N)c1ccc(-c2ccc(-c3cc4cc(C(=N)N)ccc4[nH]3)o2)cc1?
Activity (AT rich DNA [7]): Active; IC50 [1]: 2 nM; IC50 (Plasmodium falciparum): 2.8 nM; IC50 at 70 h [2]: 14200 nM; selectivity ratio [3]: 7100; selectivity ratio [4]: 5070; Activity ([5]; time 4 day): 75%; ΔTm (AT rich DNA [6]): 29 °C

Which results are given for COc1cc(C(=N)N)ccc1-c1ccc(-c2cc3ccc(C(=N)N)cc3[nH]2)o1?
IC50 [1]: 39 nM; IC50 at 70 h [2]: 11000 nM; selectivity ratio [3]: 283; ΔTm (AT rich DNA [6]): 27 °C

With N=C(N)c1ccc(-c2ccc(-c3cc4ccc(C(=N)N)cc4[nH]3)s2)nc1 as the compound, how does the IC50 [1] read?
The IC50 was 15 nM.

And the IC50 at 70 h [2]?
Its IC50 at 70 h is 14500 nM.

What about the selectivity ratio [3] of the same compound?
Its selectivity ratio is 966.

What about the Activity ([5]; time 4.0 day) of the same compound?
The Activity was “inactive”.

What about the ΔTm (AT rich DNA [6]) of the same compound?
The ΔTm was 29 °C.

Which Activity (AT rich DNA [7]) does the source give for N=C(N)c1ccc(-c2ccc(-c3cc4ccc(C(=N)N)cc4[nH]3)o2)nc1 here?
Its Activity is “Active”.

What about the IC50 [1] of the same compound?
Its IC50 is 17 nM.

And the IC50 (Plasmodium falciparum)?
Its IC50 is 6.4 nM.

And the IC50 at 70 h [2]?
Its IC50 at 70 h is 34800 nM.

And the selectivity ratio [3]?
The selectivity ratio was 2050.

And the selectivity ratio [4]?
The selectivity ratio was 5440.

What about the Activity ([5]; time 4 day) of the same compound?
Its Activity is 75%.

What about the ΔTm (AT rich DNA [6]) of the same compound?
The ΔTm was 28 °C.

What does the source list for N=C(N)c1ccc(-c2ccc(-c3cc4cc(C(=N)N)ccc4[nH]3)[se]2)cc1?
Activity (AT rich DNA [7]): Active; IC50 [1]: 3 nM; IC50 (Plasmodium falciparum): 3.9 nM; IC50 at 70 h [2]: 21500 nM; selectivity ratio [3]: 7170; selectivity ratio [4]: 5510; Activity ([5]; time 4 day): 50%; ΔTm (AT rich DNA [6]): > 30 °C

Which IC50 [1] does the source give for Cc1cc(C(=N)N)ccc1-c1ccc(-c2cc3ccc(C(=N)N)cc3[nH]2)o1 here?
Its IC50 is 6 nM.

And the IC50 at 70 h [2]?
The IC50 at 70 h was 5100 nM.

And the selectivity ratio [3]?
The selectivity ratio was 850.

And the Activity ([5]; time 4.0 day)?
The Activity was “inactive”.

And the ΔTm (AT rich DNA [6])?
The ΔTm was greater than 30 °C.

Which IC50 [1] does the source give for N=C(N)c1ccc(-c2ccc(-c3cc4cc(C(=N)N)ccc4[nH]3)o2)nc1 here?
Its IC50 is 6 nM.

And the IC50 (Plasmodium falciparum)?
Its IC50 is 5.8 nM.

What about the IC50 at 70 h [2] of the same compound?
Its IC50 at 70 h is 50400 nM.

What about the selectivity ratio [3] of the same compound?
Its selectivity ratio is 8400.

What about the selectivity ratio [4] of the same compound?
Its selectivity ratio is 8690.

What about the Activity ([5]; time 4 day) of the same compound?
The Activity was 75%.

And the ΔTm (AT rich DNA [6])?
Its ΔTm is 27 °C.
